From ChEMBL document CHEMBL1152774, “Inhibition of Trypanosoma brucei glucose-6-phosphate dehydrogenase by human steroids and their effects on the viability of cultured parasites” (Bioorg Med Chem, 2009) come the findings set out here.

The target of assay [1] is T1, Glucose-6-phosphate 1-dehydrogenase (Homo sapiens, UniProt P11413). Put plainly: Inhibition of human G6PDH using glucose-6-phosphate as substrate by Lineweaver-Burke plot.
Assay [2] deals with T2, Glucose-6-phosphate 1-dehydrogenase (Trypanosoma brucei, UniProt Q9GRG7).
T2 sequence (Q9GRG7 whole entry): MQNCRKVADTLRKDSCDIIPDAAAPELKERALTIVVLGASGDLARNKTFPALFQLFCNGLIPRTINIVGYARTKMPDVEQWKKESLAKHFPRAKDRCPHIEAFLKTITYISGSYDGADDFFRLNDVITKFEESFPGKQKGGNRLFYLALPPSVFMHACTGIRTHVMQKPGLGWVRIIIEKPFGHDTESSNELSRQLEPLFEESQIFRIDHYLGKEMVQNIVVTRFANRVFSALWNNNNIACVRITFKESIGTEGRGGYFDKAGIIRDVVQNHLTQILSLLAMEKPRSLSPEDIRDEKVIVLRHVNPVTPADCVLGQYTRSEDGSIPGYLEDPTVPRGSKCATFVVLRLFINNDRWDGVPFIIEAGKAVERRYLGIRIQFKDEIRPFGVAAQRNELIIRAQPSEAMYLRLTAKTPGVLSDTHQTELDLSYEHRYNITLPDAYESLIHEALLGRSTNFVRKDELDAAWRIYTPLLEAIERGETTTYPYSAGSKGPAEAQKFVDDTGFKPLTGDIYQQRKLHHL
Put plainly: Inhibition of Trypanosoma brucei G6PDH using NADP as substrate by Lineweaver-Burke plot.

Assay [3] concerns the target T1, Glucose-6-phosphate 1-dehydrogenase. Put plainly: Inhibition of human G6PDH using NADP as substrate by Lineweaver-Burke plot.
Assay [4] concerns Trypanosoma brucei. The assay can be described thus: Trypanocidal activity against Trypanosoma brucei 427 bloodstream form after 48 hrs by MTS assay. In kind it is functional. Conditions: Trypanosoma brucei, 427, 48 h; read-out: LD50 (the source's name). On the technique in general: Tetrazolium dyes change colour on reduction, which living cells bring about.
Assay [5] concerns the target T2, Glucose-6-phosphate 1-dehydrogenase. Put plainly: Inhibition of Trypanosoma brucei G6PDH using glucose-6-phosphate as substrate by Lineweaver-Burke plot.
In assay [6] the test system is Leishmania mexicana. The assay can be described thus: Antileishmanial activity against Leishmania mexicana early-metacyclic promastigotes up to 96 uM after 48 hrs by MTS assay. The assay is classed as functional, organism-based.

Calls of active or inactive are those of the source. No cut-off for these calls is given here.

T1 sequence (P11413 whole entry): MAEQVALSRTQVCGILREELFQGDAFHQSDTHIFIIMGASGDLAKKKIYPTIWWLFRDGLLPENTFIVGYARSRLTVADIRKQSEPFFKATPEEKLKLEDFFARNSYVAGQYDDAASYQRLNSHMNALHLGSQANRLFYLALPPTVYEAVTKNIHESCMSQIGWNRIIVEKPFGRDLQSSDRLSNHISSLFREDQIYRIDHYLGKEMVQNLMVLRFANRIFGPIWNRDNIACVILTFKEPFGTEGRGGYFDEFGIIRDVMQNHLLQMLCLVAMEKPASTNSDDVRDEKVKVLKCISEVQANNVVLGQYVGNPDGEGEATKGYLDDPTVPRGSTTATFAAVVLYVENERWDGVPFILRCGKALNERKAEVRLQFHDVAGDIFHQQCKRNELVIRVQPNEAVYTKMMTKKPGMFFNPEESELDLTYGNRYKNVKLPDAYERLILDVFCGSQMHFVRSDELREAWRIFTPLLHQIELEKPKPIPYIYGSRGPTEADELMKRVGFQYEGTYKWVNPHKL

For orientation: Ki means the equilibrium dissociation constant of an inhibitor or competing ligand from its target. A low value points to higher affinity. For `C[C@]12CC[C@H](O)CC1=CC[C@@H]1[C@@H]2CC[C@]2(C)C(=O)CC[C@@H]12` [PRASTERONE], the Ki came to 8.9 µM in assay [1], 1.1 µM in assay [2], 6.2 µM in assay [3] and 1.7 µM in assay [5]. In assay [4], the LC50 amounted to 43.8 µM. Further, the outcome in assay [6] was inactive.

Turning to `C[C@]12CC[C@H](O)C[C@@H]1CC[C@@H]1[C@@H]2CC[C@]2(C)C(=O)CC[C@@H]12` [EPIANDROSTERONE], the Ki in assay [1] was 3.4 µM; in assay [2], 0.46 µM; in assay [3], 3 µM; in assay [5], 0.49 µM. For the same molecule, the LC50 in assay [4] came out at 24.5 µM. Further, the result in assay [6] was inactive.
